# From PMC5218480 (PLoS ONE, 2017)
# Test system: MV-4-11 cells
# Test: Gene expression microarray analysis (Affymetrix PrimeView) and GSEA
# Format: cell-based, human
# Set-up: RFU PODN (11730768_x_at) / Fold change /veh PODN (11730768_x_at) / RFU LINC00158 (11744669_a_at) / Fold change /veh LINC00158 (11744669_a_at) / RFU DUSP10 (11751237_a_at) / Fold change /veh DUSP10 (11751237_a_at) / RFU ID3 (11757404_x_at) / Fold change /veh ID3 (11757404_x_at) / RFU PLEKHG5 (11737974_s_at) / Fold change /veh PLEKHG5 (11737974_s_at) / RFU LRRC4B (11730491_at) / Fold change /veh LRRC4B (11730491_at) / RFU GIMAP4 (11747438_a_at) / Fold change /veh GIMAP4 (11747438_a_at) / RFU KRT8 (11758183_x_at) / Fold change /veh KRT8 (11758183_x_at) / RFU CNN1 (11734310_a_at) / Fold change /veh CNN1 (11734310_a_at) / RFU VPS37D (11726825_at) / Fold change /veh VPS37D (11726825_at) / RFU C10orf10 (11716522_x_at) / Fold change /veh C10orf10 (11716522_x_at) / RFU KIR2DL2 /// KIR2DL4 /// KIR2DL5A /// KIR2DL5B /// KIR2DS1 /// KIR2DS2 /// KIR2DS3 /// KIR2DS4 /// KIR3DL3 /// KIR3DL3 /// KIR3DS1 (11738374_at) / Fold change /veh KIR2DL2 /// KIR2DL4 /// KIR2DL5A /// KIR2DL5B /// KIR2DS1 /// KIR2DS2 /// KIR2DS3 /// KIR2DS4 /// KIR3DL3 /// KIR3DL3 /// KIR3DS1 (11738374_at) / RFU C1QL1 (11718748_at) / Fold change /veh C1QL1 (11718748_at) / RFU TMPRSS4 (11747572_a_at) / Fold change /veh TMPRSS4 (11747572_a_at) / RFU HAMP (11756126_x_at) / Fold change /veh HAMP (11756126_x_at) / RFU RNFT2 (11725882_a_at) / Fold change /veh RNFT2 (11725882_a_at) / RFU NR4A2 (11747474_a_at) / Fold change /veh NR4A2 (11747474_a_at) / RFU ABCC12 (11746883_a_at) / Fold change /veh ABCC12 (11746883_a_at) / RFU TMEM136 (11760407_x_at) / Fold change /veh TMEM136 (11760407_x_at) / RFU CLDN22 /// WWC2 (11732394_at) / Fold change /veh CLDN22 /// WWC2 (11732394_at) / RFU HLA-DPB1 (11760878_x_at) / Fold change /veh HLA-DPB1 (11760878_x_at) / RFU SPINT1 (11716480_a_at) / Fold change /veh SPINT1 (11716480_a_at) / RFU GAP43 (11754022_s_at) / Fold change /veh GAP43 (11754022_s_at) / RFU A4GNT (11735810_at) / Fold change /veh A4GNT (11735810_at) / RFU PRB3 (11715151_x_at) / Fold change /veh PRB3 (11715151_x_at) / RFU TUBB4B (11761932_at) / Fold change /veh TUBB4B (11761932_at) / RFU CAPN14 (11732068_a_at) / Fold change /veh CAPN14 (11732068_a_at) / RFU TMCC2 (11721928_a_at) / Fold change /veh TMCC2 (11721928_a_at) / RFU IRGQ (11745062_a_at) / Fold change /veh IRGQ (11745062_a_at) / RFU FAM174B (11720279_a_at) / Fold change /veh FAM174B (11720279_a_at) / RFU TMPRSS4 (11748680_a_at) / Fold change /veh TMPRSS4 (11748680_a_at) / RFU FAM212B (11763350_a_at) / Fold change /veh FAM212B (11763350_a_at) / RFU PLEKHG5 (11743358_a_at) / Fold change /veh PLEKHG5 (11743358_a_at) / RFU ZSCAN30 (11745921_a_at) / Fold change /veh ZSCAN30 (11745921_a_at) / RFU CMKLR1 (11741424_a_at) / Fold change /veh CMKLR1 (11741424_a_at) / RFU LOC101060620 /// MAPK8IP1 (11723275_at) / Fold change /veh LOC101060620 /// MAPK8IP1 (11723275_at) / RFU SPTSSB (11747773_x_at) / Fold change /veh SPTSSB (11747773_x_at) / RFU PRSS12 (11739890_at) / Fold change /veh PRSS12 (11739890_at) / RFU BIN1 (11741810_x_at) / Fold change /veh BIN1 (11741810_x_at) / RFU WNT11 (11732464_a_at) / Fold change /veh WNT11 (11732464_a_at) / RFU C10orf10 (11716521_a_at) / Fold change /veh C10orf10 (11716521_a_at) / RFU C5orf56 (11738089_at) / Fold change /veh C5orf56 (11738089_at) / RFU CYB561 (11721691_x_at) / Fold change /veh CYB561 (11721691_x_at) / RFU ANKRD19P (11752326_a_at) / Fold change /veh ANKRD19P (11752326_a_at) / RFU OR2T12 /// OR2T33 /// OR2T8 (11738714_s_at) / Fold change /veh OR2T12 /// OR2T33 /// OR2T8 (11738714_s_at) / RFU VCAN (11748164_a_at) / Fold change /veh VCAN (11748164_a_at) / RFU JSRP1 (11732532_at) / Fold change /veh JSRP1 (11732532_at) / RFU KRTAP10-11 (11738290_x_at) / Fold change /veh KRTAP10-11 (11738290_x_at) / RFU MYO3A (11730013_a_at) / Fold change /veh MYO3A (11730013_a_at) / RFU EBF3 (11725865_a_at) / Fold change /veh EBF3 (11725865_a_at) / RFU CAMK2N1 (11719241_x_at) / Fold change /veh CAMK2N1 (11719241_x_at) / RFU C5orf56 (11738088_a_at) / Fold change /veh C5orf56 (11738088_a_at) / RFU OLFML3 (11715873_a_at) / Fold change /veh OLFML3 (11715873_a_at) / RFU LOC100653217 /// NTM (11731650_a_at) / Fold change /veh LOC100653217 /// NTM (11731650_a_at) / RFU MAPK11 (11762145_a_at) / Fold change /veh MAPK11 (11762145_a_at) / RFU FIZ1 (11724087_x_at) / Fold change /veh FIZ1 (11724087_x_at) / RFU OASL (11726364_x_at) / Fold change /veh OASL (11726364_x_at) / RFU SOX15 (11748057_x_at) / Fold change /veh SOX15 (11748057_x_at) / RFU CD79A (11719716_a_at) / Fold change /veh CD79A (11719716_a_at) / RFU HIST1H1D (11736915_at) / Fold change /veh HIST1H1D (11736915_at) / RFU CASKIN2 (11723855_a_at) / Fold change /veh CASKIN2 (11723855_a_at) / RFU LOC730098 (11760151_x_at) / Fold change /veh LOC730098 (11760151_x_at) / RFU OR4N2 (11742367_at) / Fold change /veh OR4N2 (11742367_at) / RFU PRRT2 (11749266_a_at) / Fold change /veh PRRT2 (11749266_a_at) / RFU SNX32 (11753110_a_at) / Fold change /veh SNX32 (11753110_a_at) / RFU CDHR5 (11726645_a_at) / Fold change /veh CDHR5 (11726645_a_at) / RFU RCAN1 (11760418_a_at) / Fold change /veh RCAN1 (11760418_a_at) / RFU FAM167A (11723789_a_at) / Fold change /veh FAM167A (11723789_a_at) / RFU FAM26E (11764081_at) / Fold change /veh FAM26E (11764081_at) / RFU ISYNA1 (11749810_s_at) / Fold change /veh ISYNA1 (11749810_s_at) / RFU ACY1 (11761880_at) / Fold change /veh ACY1 (11761880_at) / RFU 11764098_at / Fold change /veh 11764098_at / RFU SAMD14 (11745864_x_at) / Fold change /veh SAMD14 (11745864_x_at) / RFU NPB (11741838_a_at) / Fold change /veh NPB (11741838_a_at) / RFU TMPRSS6 (11731388_a_at) / Fold change /veh TMPRSS6 (11731388_a_at) / RFU KRTAP10-2 (11738614_at) / Fold change /veh KRTAP10-2 (11738614_at) / RFU ARHGAP8 /// PRR5-ARHGAP8 (11727945_x_at) / Fold change /veh ARHGAP8 /// PRR5-ARHGAP8 (11727945_x_at) / RFU KRTAP5-7 /// NADSYN1 (11734609_at) / Fold change /veh KRTAP5-7 /// NADSYN1 (11734609_at) / RFU RASL12 (11751679_a_at) / Fold change /veh RASL12 (11751679_a_at) / RFU CDKN2B (11736163_a_at) / Fold change /veh CDKN2B (11736163_a_at) / RFU PRF1 (11729649_at) / Fold change /veh PRF1 (11729649_at) / RFU, ZNF638 /// ZNF638-IT1 / Fold change vs veh, ZNF638 /// ZNF638-IT1 / RFU, PANK3 / Fold change vs veh, PANK3 / RFU, SH3YL1 / Fold change vs veh, SH3YL1 / RFU, ZEB2 / Fold change vs veh, ZEB2 / RFU, NRIP1 / Fold change vs veh, NRIP1 / RFU, PTTG1IP / Fold change vs veh, PTTG1IP / RFU, CAPN2 / Fold change vs veh, CAPN2 / RFU, MED14 / Fold change vs veh, MED14 / RFU, SNORA58 / Fold change vs veh, SNORA58 / RFU, C1orf63 / Fold change vs veh, C1orf63 / RFU, LRRFIP1 / Fold change vs veh, LRRFIP1 / RFU, NDUFAF7 / Fold change vs veh, NDUFAF7 / RFU, SLC12A2 / Fold change vs veh, SLC12A2 / RFU, IBTK / Fold change vs veh, IBTK / RFU, ESF1 / Fold change vs veh, ESF1 / Fold change vs veh, TMEM50B / RFU, TAOK1 / Fold change vs veh, TAOK1 / RFU, ACBD3 / Fold change vs veh, ACBD3 / RFU, TMA16 / Fold change vs veh, TMA16 / RFU, RWDD3 / Fold change vs veh, RWDD3 / RFU, BCAT1 / Fold change vs veh, BCAT1 / RFU, EDEM3 / Fold change vs veh, EDEM3 / RFU, TMEM33 / Fold change vs veh, TMEM33 / RFU, WDR75 / Fold change vs veh, WDR75 / RFU, AHCTF1 / Fold change vs veh, AHCTF1 / RFU, TFRC / Fold change vs veh, TFRC / RFU, ZDHHC17 / Fold change vs veh, ZDHHC17 / RFU, NOM1 / Fold change vs veh, NOM1 / RFU, ARL8B / Fold change vs veh, ARL8B / RFU, ZBTB11 / Fold change vs veh, ZBTB11 / RFU, TAMM41 / Fold change vs veh, TAMM41 / RFU, KIAA1704 /// LOC100996395 / Fold change vs veh, KIAA1704 /// LOC100996395 / RFU, ING1 / Fold change vs veh, ING1 / RFU, TRMT61B / Fold change vs veh, TRMT61B / RFU, FUBP3 / Fold change vs veh, FUBP3 / RFU, TP53 / Fold change vs veh, TP53 / RFU, TNKS2 / Fold change vs veh, TNKS2 / RFU, ZFP14 / Fold change vs veh, ZFP14 / RFU, ACTR2 / Fold change vs veh, ACTR2 / RFU, PPP3R1 / Fold change vs veh, PPP3R1 / RFU, PIK3R1 / Fold change vs veh, PIK3R1 / RFU, HNRNPA1 / Fold change vs veh, HNRNPA1 / RFU, RNF170 / Fold change vs veh, RNF170 / RFU, ZNF28 / Fold change vs veh, ZNF28 / RFU, RNGTT / Fold change vs veh, RNGTT / RFU, OGT / Fold change vs veh, OGT / RFU, BRD1 / Fold change vs veh, BRD1 / RFU, MARS / Fold change vs veh, MARS / RFU, ZNF655 / Fold change vs veh, ZNF655 / RFU, FAHD1 / Fold change vs veh, FAHD1 / RFU, BDP1 / Fold change vs veh, BDP1 / RFU, LRRCC1 / Fold change vs veh, LRRCC1 / RFU, ARID1A / Fold change vs veh, ARID1A / RFU, ZNF146 / Fold change vs veh, ZNF146 / RFU, ZNF330 / Fold change vs veh, ZNF330 / RFU, GPN3 / Fold change vs veh, GPN3 / RFU, C9orf123 / Fold change vs veh, C9orf123 / RFU, N4BP2L2 / Fold change vs veh, N4BP2L2 / RFU, ARFIP1 / Fold change vs veh, ARFIP1 / RFU, FAM179B / Fold change vs veh, FAM179B / RFU, BCL10 / Fold change vs veh, BCL10 / RFU, UHRF1BP1L / Fold change vs veh, UHRF1BP1L / RFU, BET1 / Fold change vs veh, BET1 / RFU, CNOT2 / Fold change vs veh, CNOT2 / RFU, ZNF268 / Fold change vs veh, ZNF268 / Fold change vs veh, ZNF507 / RFU, DGCR2 / Fold change vs veh, DGCR2 / RFU, WDSUB1 / Fold change vs veh, WDSUB1 / Fold change vs veh, HSP90B1 /// MIR3652 / RFU, ADSS / Fold change vs veh, ADSS / RFU, GK / Fold change vs veh, GK / RFU, ZNF148 / Fold change vs veh, ZNF148 / RFU, TAF9 / Fold change vs veh, TAF9 / RFU, SLC1A5 / Fold change vs veh, SLC1A5 / RFU, SLMO2 / Fold change vs veh, SLMO2 / RFU, ABCC4 / Fold change vs veh, ABCC4 / RFU, LOC101060439 /// RAP1B / Fold change vs veh, LOC101060439 /// RAP1B / RFU, RFX7 / Fold change vs veh, RFX7 / RFU, GTPBP10 / Fold change vs veh, GTPBP10 / RFU, CNEP1R1 / Fold change vs veh, CNEP1R1 / RFU, BIVM-ERCC5 /// ERCC5 / Fold change vs veh, BIVM-ERCC5 /// ERCC5 / RFU, ILF3 / Fold change vs veh, ILF3 / RFU 11762660_at / Fold change /veh 11762660_at / RFU VCAN (11757783_s_at) / Fold change /veh VCAN (11757783_s_at) / RFU DDX43 (11728927_at) / Fold change /veh DDX43 (11728927_at) / RFU KRT8 (11758188_x_at) / Fold change /veh KRT8 (11758188_x_at) / RFU NKD1 (11759106_at) / Fold change /veh NKD1 (11759106_at) / RFU SRD5A1 (11742802_a_at) / Fold change /veh SRD5A1 (11742802_a_at) / RFU TPSAB1 /// TPSB2 (11721975_s_at) / Fold change /veh TPSAB1 /// TPSB2 (11721975_s_at) / RFU GSTM3 (11746129_a_at) / Fold change /veh GSTM3 (11746129_a_at) / RFU IL23R (11737362_x_at) / Fold change /veh IL23R (11737362_x_at) / RFU TMEM51 (11727254_a_at) / Fold change /veh TMEM51 (11727254_a_at) / RFU PIWIL2 (11732686_x_at) / Fold change /veh PIWIL2 (11732686_x_at) / RFU ORM1 (11744905_x_at) / Fold change /veh ORM1 (11744905_x_at) / RFU CCDC152 (11743942_at) / Fold change /veh CCDC152 (11743942_at) / RFU ECM1 (11717891_a_at) / Fold change /veh ECM1 (11717891_a_at) / RFU IL23R (11748794_a_at) / Fold change /veh IL23R (11748794_a_at) / RFU TNFAIP8L3 (11732012_x_at) / Fold change /veh TNFAIP8L3 (11732012_x_at) / RFU MBOAT4 (11741988_at) / Fold change /veh MBOAT4 (11741988_at) / RFU 11764193_at / Fold change /veh 11764193_at / RFU TMEM53 (11763286_at) / Fold change /veh TMEM53 (11763286_at) / RFU MAGEB2 (11727129_at) / Fold change /veh MAGEB2 (11727129_at) / RFU TMEM200A (11744735_a_at) / Fold change /veh TMEM200A (11744735_a_at) / RFU CCDC152 (11751479_a_at) / Fold change /veh CCDC152 (11751479_a_at) / RFU FAM211A (11726209_a_at) / Fold change /veh FAM211A (11726209_a_at) / RFU RGS16 (11746705_a_at) / Fold change /veh RGS16 (11746705_a_at) / RFU VCAN (11755009_s_at) / Fold change /veh VCAN (11755009_s_at) / RFU RHOB (11743442_s_at) / Fold change /veh RHOB (11743442_s_at) / RFU RGS16 (11720943_a_at) / Fold change /veh RGS16 (11720943_a_at) / RFU RGS16 (11720944_at) / Fold change /veh RGS16 (11720944_at) / RFU, VPS4B / Fold change vs veh, VPS4B / RFU, CREB1 / Fold change vs veh, CREB1 / RFU, DNAJC13 / Fold change vs veh, DNAJC13 / RFU, GNAQ / Fold change vs veh, GNAQ / RFU, CDK5R1 / Fold change vs veh, CDK5R1 / RFU, ZRANB3 / Fold change vs veh, ZRANB3 / RFU, CUL4A / Fold change vs veh, CUL4A / RFU, CCNY / Fold change vs veh, CCNY / RFU, UFL1 / Fold change vs veh, UFL1 / RFU, COG3 / Fold change vs veh, COG3 / RFU, DIAPH2 / Fold change vs veh, DIAPH2 / RFU, SKA2 / Fold change vs veh, SKA2 / RFU, AFF3 / Fold change vs veh, AFF3 / RFU, LMF1 / Fold change vs veh, LMF1 / RFU, IPO11 / Fold change vs veh, IPO11 / RFU, DFFB / Fold change vs veh, DFFB / RFU, FOXP1 / Fold change vs veh, FOXP1 / RFU, CARD8 / Fold change vs veh, CARD8 / RFU, STRN3 / Fold change vs veh, STRN3 / RFU, ADK / Fold change vs veh, ADK / RFU, RASSF2 / Fold change vs veh, RASSF2 / RFU, WIPF1 / Fold change vs veh, WIPF1 / RFU, LARP1B / Fold change vs veh, LARP1B / RFU, RASA1 / Fold change vs veh, RASA1 / RFU, RB1 / Fold change vs veh, RB1 / RFU, PPFIA1 / Fold change vs veh, PPFIA1 / RFU, MAT2A / Fold change vs veh, MAT2A / RFU, CCT5 / Fold change vs veh, CCT5 / RFU, WDR92 / Fold change vs veh, WDR92 / RFU, CUX1 / Fold change vs veh, CUX1 / RFU, TTC7A / Fold change vs veh, TTC7A / RFU, TMEM135 / Fold change vs veh, TMEM135 / RFU, DEPTOR / Fold change vs veh, DEPTOR / RFU, CPM / Fold change vs veh, CPM / RFU, DNAJB6 / Fold change vs veh, DNAJB6 / RFU, CACNA2D3 / Fold change vs veh, CACNA2D3 / RFU, DTX4 / Fold change vs veh, DTX4 / RFU, TFCP2 / Fold change vs veh, TFCP2 / RFU, GMCL1 /// GMCL1P1 / Fold change vs veh, GMCL1 /// GMCL1P1 / RFU, AEBP2 / Fold change vs veh, AEBP2 / RFU, SNHG1 /// SNORD22 /// SNORD25 /// SNORD26 /// SNORD27 /// SNORD28 /// SNORD29 /// SNORD31 / Fold change vs veh, SNHG1 /// SNORD22 /// SNORD25 /// SNORD26 /// SNORD27 /// SNORD28 /// SNORD29 /// SNORD31 / Fold change (Aza/veh), C12orf56 (ProbeSet 11735607_a_at) / Fold change (ACY-1035/veh), C12orf56 (ProbeSet 11735607_a_at) / Fold change (Aza/veh), FGFR1OP (ProbeSet 11751329_s_at) / Fold change (ACY-1035/veh), FGFR1OP (ProbeSet 11751329_s_at) / Fold change (Aza/veh), VPS36 (ProbeSet 11739960_a_at) / Fold change (ACY-1035/veh), VPS36 (ProbeSet 11739960_a_at) / RFU SYPL1 (11715823_x_at) / Fold change /veh SYPL1 (11715823_x_at) / RFU IGFBP7 (11715501_s_at) / Fold change /veh IGFBP7 (11715501_s_at) / RFU REEP3 (11722064_at) / Fold change /veh REEP3 (11722064_at) / RFU IGLL1 (11728026_x_at) / Fold change /veh IGLL1 (11728026_x_at): dose or concentration left out as unconfirmed
# Settings: MV-4-11 cells, 48 hours
compound,measurement,value
Nc1ccc(-c2cccs2)cc1NC(=O)c1ccc2c(c1)cc(C1CC1)n2CCN1CCOCC1 [ACY-1035],Fold change /veh LRRC4B (11730491_at),1.07
